Data as given in PubChem BioAssay AID1963425 (Molecular Pharmacology Branch, DTP, NCI, 2024).
Several values for one entry are separate records, joined by “and”; a condition that tells them apart may be missing. Equal values may be shown once.

Test system: 323965-272-R-J2-PDC complex spheroid growth, % test/control
Experiment: Anticancer human tumor 323965-272-R-J2-PDC patient-derived pancreatic carcinoma cell line growth inhibition [Asc]
Settings: for viability, T/C: stronger effect = lower value
Summary of the method: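 Tumor cells were grown as multicellular spheroids with stromal HUVEC and mesenchymal stem cells and treated singly or in combination. Concentrations fell in half-log steps from the clinical Cmax, or from 10 microM where none was known.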
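Note: compound exposure lasted 7 days starting three days after spheroid seeding.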
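Throughout, for viability, T/C: 100% = DMSO vehicle control wells with viability set relative to vehicle.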

NC(=O)C(=Cn1cnc(-c2cc(C(F)(F)F)cc(C(F)(F)F)c2)n1)c1cncnc1 + CCN1C(C(=O)NC23CCC(C(=O)O)(CC2)CC3)C(c2cccc(Cl)c2F)C2(C(=O)Nc3cc(Cl)ccc32)C12CCCCC2
IC50 (curve of first compound, second compound 0.00949 µM): > 300 nM | IC50 (curve of first compound, second compound 0.03 µM): > 300 nM | IC50 (curve of first compound, second compound 0.0949 µM): > 300 nM | IC50 (curve of first compound, second compound 0.3 µM): > 300 nM | IC50 (curve of first compound, second compound 0.949 µM): > 300 nM | IC50 (curve of first compound, second compound 3 µM): > 300 nM | viability, T/C (second compound 0.00949 µM, first compound 0.000949 µM): 108% | viability, T/C (second compound 0.00949 µM, first compound 0.003 µM): 100% | viability, T/C (second compound 0.00949 µM, first compound 0.00949 µM): 98% | viability, T/C (second compound 0.00949 µM, first compound 0.03 µM): 105% | viability, T/C (second compound 0.00949 µM, first compound 0.0949 µM): 86.3% | viability, T/C (second compound 0.00949 µM, first compound 0.3 µM): 57.9% | viability, T/C (second compound 0.03 µM, first compound 0.000949 µM): 109% | viability, T/C (second compound 0.03 µM, first compound 0.003 µM): 105% | viability, T/C (second compound 0.03 µM, first compound 0.00949 µM): 96.8% | viability, T/C (second compound 0.03 µM, first compound 0.03 µM): 99.8% | viability, T/C (second compound 0.03 µM, first compound 0.0949 µM): 90% | viability, T/C (second compound 0.03 µM, first compound 0.3 µM): 68% | viability, T/C (second compound 0.0949 µM, first compound 0.000949 µM): 111% | viability, T/C (second compound 0.0949 µM, first compound 0.003 µM): 101% | viability, T/C (second compound 0.0949 µM, first compound 0.00949 µM): 109% | viability, T/C (second compound 0.0949 µM, first compound 0.03 µM): 100% | viability, T/C (second compound 0.0949 µM, first compound 0.0949 µM): 91.7% | viability, T/C (second compound 0.0949 µM, first compound 0.3 µM): 55.5% | viability, T/C (second compound 0.3 µM, first compound 0.000949 µM): 101% | viability, T/C (second compound 0.3 µM, first compound 0.003 µM): 103% | viability, T/C (second compound 0.3 µM, first compound 0.00949 µM): 101% | viability, T/C (second compound 0.3 µM, first compound 0.03 µM): 99% | viability, T/C (second compound 0.3 µM, first compound 0.0949 µM): 88.7% | viability, T/C (second compound 0.3 µM, first compound 0.3 µM): 55.2% | viability, T/C (second compound 0.949 µM, first compound 0.000949 µM): 103% | viability, T/C (second compound 0.949 µM, first compound 0.003 µM): 93.9% | viability, T/C (second compound 0.949 µM, first compound 0.00949 µM): 84.3% | viability, T/C (second compound 0.949 µM, first compound 0.03 µM): 87.7% | viability, T/C (second compound 0.949 µM, first compound 0.0949 µM): 85.7% | viability, T/C (second compound 0.949 µM, first compound 0.3 µM): 53.6% | viability, T/C (second compound 3 µM, first compound 0.000949 µM): 94% | viability, T/C (second compound 3 µM, first compound 0.003 µM): 101% | viability, T/C (second compound 3 µM, first compound 0.00949 µM): 89.5% | viability, T/C (second compound 3 µM, first compound 0.03 µM): 85.2% | viability, T/C (second compound 3 µM, first compound 0.0949 µM): 82.3% | viability, T/C (second compound 3 µM, first compound 0.3 µM): 53%

C=CC(=O)N1CCN(c2nc(=O)n(-c3c(C)ccnc3C(C)C)c3nc(-c4c(O)cccc4F)c(F)cc23)C(C)C1 (stereo unspecified)
viability, T/C (compound 0.0316 µM): 68.7% and 71.9% and 67.7% | viability, T/C (compound 0.1 µM): 56.3% and 59.3% and 71.6% | viability, T/C (compound 0.316 µM): 58.4% and 59% and 65.9% | viability, T/C (compound 1 µM): 57% and 64.3% and 67.5% | viability, T/C (compound 3.16 µM): 66.4% and 72.1% and 67.5% | viability, T/C (compound 10 µM): 64.8% and 65.6% and 61.1% | IC50 (curve of compound): > 10000 nM

CCN1C(C(=O)NC23CCC(C(=O)O)(CC2)CC3)C(c2cccc(Cl)c2F)C2(C(=O)Nc3cc(Cl)ccc32)C12CCCCC2 (stereo unspecified) + Cc1c(S(C)(=O)=O)c(-c2cc(F)cc(N3CCN(c4ccc(NS(=O)(=O)c5ccc(NC(CCN6CCC(C(=O)OCCCP(=O)(O)O)CC6)CSc6ccccc6)c(S(=O)(=O)C(F)(F)F)c5)cc4)CC3)c2)c(-c2ccc(Cl)cc2)n1C(C)C
IC50 (curve of first compound, second compound 0.0316 µM): > 3000 nM | IC50 (curve of first compound, second compound 0.1 µM): > 3000 nM | IC50 (curve of first compound, second compound 0.316 µM): > 3000 nM | IC50 (curve of first compound, second compound 1 µM): > 3000 nM | IC50 (curve of first compound, second compound 3.16 µM): 1870 nM | IC50 (curve of first compound, second compound 10 µM): 1180 nM | viability, T/C (second compound 0.0316 µM, first compound 0.00949 µM): 117% | viability, T/C (second compound 0.0316 µM, first compound 0.03 µM): 103% | viability, T/C (second compound 0.0316 µM, first compound 0.0949 µM): 88.5% | viability, T/C (second compound 0.0316 µM, first compound 0.3 µM): 101% | viability, T/C (second compound 0.0316 µM, first compound 0.949 µM): 98.8% | viability, T/C (second compound 0.0316 µM, first compound 3 µM): 93.8% | viability, T/C (second compound 0.1 µM, first compound 0.00949 µM): 110% | viability, T/C (second compound 0.1 µM, first compound 0.03 µM): 94.2% | viability, T/C (second compound 0.1 µM, first compound 0.0949 µM): 104% | viability, T/C (second compound 0.1 µM, first compound 0.3 µM): 101% | viability, T/C (second compound 0.1 µM, first compound 0.949 µM): 88.4% | viability, T/C (second compound 0.1 µM, first compound 3 µM): 81.8% | viability, T/C (second compound 0.316 µM, first compound 0.00949 µM): 89.4% | viability, T/C (second compound 0.316 µM, first compound 0.03 µM): 97.9% | viability, T/C (second compound 0.316 µM, first compound 0.0949 µM): 94.5% | viability, T/C (second compound 0.316 µM, first compound 0.3 µM): 87.1% | viability, T/C (second compound 0.316 µM, first compound 0.949 µM): 90% | viability, T/C (second compound 0.316 µM, first compound 3 µM): 65.3% | viability, T/C (second compound 1 µM, first compound 0.00949 µM): 95.3% | viability, T/C (second compound 1 µM, first compound 0.03 µM): 81.8% | viability, T/C (second compound 1 µM, first compound 0.0949 µM): 86.5% | viability, T/C (second compound 1 µM, first compound 0.3 µM): 80.3% | viability, T/C (second compound 1 µM, first compound 0.949 µM): 81.8% | viability, T/C (second compound 1 µM, first compound 3 µM): 54% | viability, T/C (second compound 3.16 µM, first compound 0.00949 µM): 70.6% | viability, T/C (second compound 3.16 µM, first compound 0.03 µM): 76.3% | viability, T/C (second compound 3.16 µM, first compound 0.0949 µM): 75.9% | viability, T/C (second compound 3.16 µM, first compound 0.3 µM): 69.4% | viability, T/C (second compound 3.16 µM, first compound 0.949 µM): 64.7% | viability, T/C (second compound 3.16 µM, first compound 3 µM): 40.1% | viability, T/C (second compound 10 µM, first compound 0.00949 µM): 71.7% | viability, T/C (second compound 10 µM, first compound 0.03 µM): 67% | viability, T/C (second compound 10 µM, first compound 0.0949 µM): 71.9% | viability, T/C (second compound 10 µM, first compound 0.3 µM): 62.1% | viability, T/C (second compound 10 µM, first compound 0.949 µM): 54.2% | viability, T/C (second compound 10 µM, first compound 3 µM): 34%
